How the values were obtained:
[1] = Inhibition of PI3Kbeta in human washed platelets assessed as suppression of ADP-induced platelet aggregation preincubated for 5 mins followed by ADP stimulation after 10 mins by light transmission aggregometric analysis
[2] = molecular target: Phosphatidylinositol 4,5-bisphosphate 3-kinase catalytic subunit beta isoform (Homo sapiens, UniProt P42338); assay: Inhibition of PI3Kbeta in human washed platelets assessed as suppression of ADP-induced platelet aggregation preincubated for 5 mins followed by ADP stimulation after 10 mins by light transmission aggregometric analysis
[3] = Inhibition of PI3Kbeta in human platelet-rich plasma assessed as suppression of ADP-induced platelet aggregation preincubated for 5 mins followed by ADP stimulation after 10 mins by light transmission aggregometric analysis

Sequence of Phosphatidylinositol 4,5-bisphosphate 3-kinase catalytic subunit beta isoform (P42338 whole entry, canonical isoform): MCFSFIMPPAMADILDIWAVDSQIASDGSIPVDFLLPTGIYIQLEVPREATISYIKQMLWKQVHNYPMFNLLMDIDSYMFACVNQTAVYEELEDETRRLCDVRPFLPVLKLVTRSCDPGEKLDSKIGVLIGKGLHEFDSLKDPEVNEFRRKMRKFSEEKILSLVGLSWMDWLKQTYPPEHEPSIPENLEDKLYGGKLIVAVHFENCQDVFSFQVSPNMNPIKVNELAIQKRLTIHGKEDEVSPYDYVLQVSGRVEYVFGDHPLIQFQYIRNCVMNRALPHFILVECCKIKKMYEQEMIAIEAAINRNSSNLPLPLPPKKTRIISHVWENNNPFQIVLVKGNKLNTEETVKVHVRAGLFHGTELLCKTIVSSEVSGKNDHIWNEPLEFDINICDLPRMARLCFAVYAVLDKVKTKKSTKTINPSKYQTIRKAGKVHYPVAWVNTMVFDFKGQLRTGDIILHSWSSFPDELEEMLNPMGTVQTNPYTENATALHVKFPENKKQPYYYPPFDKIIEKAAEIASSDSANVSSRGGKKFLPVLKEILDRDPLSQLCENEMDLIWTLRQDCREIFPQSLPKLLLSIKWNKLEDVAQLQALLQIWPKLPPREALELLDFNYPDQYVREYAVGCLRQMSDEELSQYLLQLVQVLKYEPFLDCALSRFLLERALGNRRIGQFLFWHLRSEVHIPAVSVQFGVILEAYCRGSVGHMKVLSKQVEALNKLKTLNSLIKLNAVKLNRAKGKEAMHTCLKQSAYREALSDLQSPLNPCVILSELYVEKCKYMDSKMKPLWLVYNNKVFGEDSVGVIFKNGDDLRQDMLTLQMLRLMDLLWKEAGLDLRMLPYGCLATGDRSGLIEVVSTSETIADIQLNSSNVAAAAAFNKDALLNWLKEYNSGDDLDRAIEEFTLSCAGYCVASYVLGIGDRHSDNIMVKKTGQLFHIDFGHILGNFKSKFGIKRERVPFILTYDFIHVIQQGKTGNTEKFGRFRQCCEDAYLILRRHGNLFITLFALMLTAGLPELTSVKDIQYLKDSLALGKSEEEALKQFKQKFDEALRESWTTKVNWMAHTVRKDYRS

| IC50 [1] [nM] | IC50 [2] [nM] | IC50 [3] [nM] | SMILES |
| --- | --- | --- | --- |
| 30 | – | – | O=C([C@H]1CCCN1)N1CCN(c2nc(N3CCOCC3)nc(-n3c(C(F)F)nc4ccccc43)n2)CC1 |
| – | 30 | 2800 | N[C@@H](Cc1ccccc1)C(=O)N1CCN(c2nc(N3CCOCC3)nc(-n3c(C(F)F)nc4ccccc43)n2)CC1 |
| 30 | – | – | O=C([C@@H]1CCCN1)N1CCN(c2nc(N3CCOCC3)nc(-n3c(C(F)F)nc4ccccc43)n2)CC1 |

Source: BindingDB's records for doi:10.1016/j.ejmech.2016.06.010 (Monash University, 2016)
